Laboratory results reported in PubChem BioAssay AID248 (DTP/NCI, 2004).
“And” between values parts separate entries of the source, which are not always exact repeats. Equal values may be shown once. Toxic doses and inconclusive results are not listed. No stated cut-off is given here; in the data, active means T/C of 150% or more; inactive means T/C below 125%.

Tested on: L1210 leukemia ip in BDF1 mice, survival T/C
Experiment: NCI In Vivo Anticancer Drug Screen. Data for tumor model L1210 Leukemia (intraperitoneal) in B6D2F1 (BDF1) mice
Conditions: endpoint: mean survival time, higher = longer survival
How it was run: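 Transplantable tumor model; survival measured in treated vs vehicle control mice. Value = treated/control.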

[1] = dose: 100.0 mg/kg/injection, schedule: Q04DX002 (ip), vehicle: gum acacia
[2] = dose: 200.0 mg/kg/injection, schedule: Q04DX002 (ip), vehicle: gum acacia
[3] = dose: 400.0 mg/kg/injection, schedule: Q04DX002 (ip), vehicle: gum acacia
[4] = dose: 100.0 mg/kg/injection, schedule: Q04DX003 (ip), vehicle: saline with Tween-80
[5] = dose: 200.0 mg/kg/injection, schedule: Q04DX003 (ip), vehicle: saline with Tween-80
[6] = dose: 400.0 mg/kg/injection, schedule: Q04DX003 (ip), vehicle: saline with Tween-80
[7] = dose: 100.0 mg/kg/injection, schedule: Q04DX002 (ip), vehicle: Klucel (hydroxypropylcellulose) (HPC)
[8] = dose: 200.0 mg/kg/injection, schedule: Q04DX002 (ip), vehicle: Klucel (hydroxypropylcellulose) (HPC)
[9] = dose: 400.0 mg/kg/injection, schedule: Q04DX002 (ip), vehicle: Klucel (hydroxypropylcellulose) (HPC)
[10] = dose: 100.0 mg/kg/injection, schedule: Q01DX009 (ip), vehicle: Klucel (hydroxypropylcellulose) (HPC)
[11] = dose: 100.0 mg/kg/injection, schedule: Q04DX003 (ip), vehicle: Klucel (hydroxypropylcellulose) (HPC)
[12] = dose: 200.0 mg/kg/injection, schedule: Q01DX009 (ip), vehicle: Klucel (hydroxypropylcellulose) (HPC)
[13] = dose: 200.0 mg/kg/injection, schedule: Q04DX003 (ip), vehicle: Klucel (hydroxypropylcellulose) (HPC)
[14] = dose: 400.0 mg/kg/injection, schedule: Q04DX003 (ip), vehicle: Klucel (hydroxypropylcellulose) (HPC)
[15] = dose: 100.0 mg/kg/injection, schedule: Q04DX003 (ip), vehicle: saline
[16] = dose: 200.0 mg/kg/injection, schedule: Q04DX003 (ip), vehicle: saline
[17] = dose: 400.0 mg/kg/injection, schedule: Q04DX003 (ip), vehicle: saline
[18] = dose: 100.0 mg/kg/injection, schedule: Q01DX001 (ip), vehicle: Klucel (hydroxypropylcellulose) (HPC)
[19] = dose: 200.0 mg/kg/injection, schedule: Q01DX001 (ip), vehicle: Klucel (hydroxypropylcellulose) (HPC)
[20] = dose: 400.0 mg/kg/injection, schedule: Q01DX001 (ip), vehicle: Klucel (hydroxypropylcellulose) (HPC)
[21] = dose: 100.0 mg/kg/injection, schedule: Q01DX009 (ip), vehicle: saline sonified
[22] = dose: 200.0 mg/kg/injection, schedule: Q01DX009 (ip), vehicle: saline sonified

Measured: T/C

O=C(O)CCCCCCCCCCNC(=O)Nc1cccc(C(F)(F)F)c1
inactive: dose: 100.0 mg/kg/injection, schedule: Q01DX001 (ip), vehicle: gum acacia 92 % of control and 96 % of control | dose: 100.0 mg/kg/injection, schedule: Q01DX009 (ip), vehicle: gum acacia 92 % of control | [1] 93 % of control and 88 % of control | dose: 100.0 mg/kg/injection, schedule: Q04DX003 (ip), vehicle: gum acacia 93 % of control and 89 % of control and 90 % of control | dose: 200.0 mg/kg/injection, schedule: Q01DX001 (ip), vehicle: gum acacia 94 % of control and 89 % of control | dose: 200.0 mg/kg/injection, schedule: Q01DX009 (ip), vehicle: gum acacia 93 % of control | [2] 92 % of control and 89 % of control | dose: 200.0 mg/kg/injection, schedule: Q04DX003 (ip), vehicle: gum acacia 93 % of control and 97 % of control and 88 % of control | dose: 400.0 mg/kg/injection, schedule: Q01DX001 (ip), vehicle: gum acacia 92 % of control and 96 % of control | dose: 400.0 mg/kg/injection, schedule: Q01DX009 (ip), vehicle: gum acacia 93 % of control | [3] 86 % of control and 90 % of control | dose: 400.0 mg/kg/injection, schedule: Q04DX003 (ip), vehicle: gum acacia 94 % of control and 88 % of control

CCOC(=O)c1ccc(N=Cc2cnc(N)nc2N)cc1
inactive: dose: 100.0 mg/kg/injection, schedule: Q01DX001 (ip), vehicle: other 93 % of control | dose: 200.0 mg/kg/injection, schedule: Q01DX001 (ip), vehicle: other 87 % of control | dose: 400.0 mg/kg/injection, schedule: Q01DX001 (ip), vehicle: other 93 % of control

CC(C)Cc1ccc(N=Nc2ccccc2)cc1
inactive: [4] 93 % of control | [5] 93 % of control | [6] 88 % of control

O=C1Nc2ccc(Br)cc2C1=Nc1ccc2c(c1)OCO2
inactive: [7] 100 % of control | [8] 95 % of control | [9] 100 % of control

Cc1ccc2nc[nH]c(=O)c2c1
inactive: [7] 106 % of control | [8] 103 % of control | [9] 103 % of control

COc1cc(C2CC(C)=C(C)CC2C(=O)O)cc(OC)c1OC (stereo unspecified)
inactive: [4] 92 % of control | [5] 97 % of control | [6] 96 % of control

Cc1c(N=CN(C)C)c(=O)n(-c2ccccc2)n1C
inactive: [10] 94 % of control | [11] 110 % of control | [12] 93 % of control | [13] 105 % of control | dose: 400.0 mg/kg/injection, schedule: Q01DX009 (ip), vehicle: Klucel (hydroxypropylcellulose) (HPC) 100 % of control | [14] 107 % of control

COc1ccc(CCN2CCCC2C(=O)O)cc1OC (stereo unspecified)
inactive: [15] 96 % of control | [16] 94 % of control | [17] 100 % of control

O=S(=O)(Oc1ccc(Cl)cc1Cl)c1ccc(Cl)cc1
inactive: dose: 75.0 mg/kg/injection, schedule: Q04DX003 (ip), vehicle: Klucel (hydroxypropylcellulose) (HPC) 93 % of control | dose: 150.0 mg/kg/injection, schedule: Q04DX003 (ip), vehicle: Klucel (hydroxypropylcellulose) (HPC) 101 % of control | dose: 300.0 mg/kg/injection, schedule: Q04DX003 (ip), vehicle: Klucel (hydroxypropylcellulose) (HPC) 90 % of control

CC1(C)CC2CCC1(Cl)CC2Cl (stereo unspecified)
inactive: dose: 50.0 mg/kg/injection, schedule: Q01DX009 (ip), vehicle: saline + alcohol 100 % of control | dose: 100.0 mg/kg/injection, schedule: Q01DX009 (ip), vehicle: saline + alcohol 93 % of control

O=C(COc1ccc(Cl)cc1)Nc1ccc(Br)cc1
inactive: [1] 97 % of control | [2] 106 % of control | [3] 95 % of control

O=C(C=c1sc(=CC(=O)c2ccccc2)s1)c1ccccc1
inactive: [18] 97 % of control | [19] 97 % of control | [20] 97 % of control

CCCCCCCCC/C=C(\CCCCCCCCCC)c1cc(C)ccc1C
inactive: dose: 12.5 mg/kg/injection, schedule: Q04DX002 (ip), vehicle: saline with Tween-80 94 % of control

Cc1cc(=S)cc(C)o1
inactive: [1] 93 % of control | [2] 109 % of control

O=C1Nc2ccccc2CS1
inactive: dose: 100.0 mg/kg/injection, schedule: Q01DX001 (ip), vehicle: saline 100 % of control | dose: 200.0 mg/kg/injection, schedule: Q01DX001 (ip), vehicle: saline 97 % of control | dose: 400.0 mg/kg/injection, schedule: Q01DX001 (ip), vehicle: saline 94 % of control

CC(=O)c1ccc(F)cc1
inactive: dose: 50.0 mg/kg/injection, schedule: Q01DX009 (ip), vehicle: Klucel (hydroxypropylcellulose) (HPC) 98 % of control | [10] 98 % of control | [11] 86 % of control | [12] 97 % of control | [13] 98 % of control

CN=C(NC)c1cccc(NC(=O)c2cccc(C(=O)Nc3cccc(C(=NC)NC)c3)c2)c1
inactive: dose: 4.4 mg/kg/injection, schedule: Q01DX Z (ip), vehicle: carboxymethylcellulose (CMC) 96 % of control | dose: 6.6 mg/kg/injection, schedule: Q01DX Z (ip), vehicle: carboxymethylcellulose (CMC) 98 % of control | dose: 10.0 mg/kg/injection, schedule: Q01DX Z (ip), vehicle: carboxymethylcellulose (CMC) 96 % of control | dose: 15.0 mg/kg/injection, schedule: Q01DX Z (ip), vehicle: carboxymethylcellulose (CMC) 93 % of control and 98 % of control | dose: 22.0 mg/kg/injection, schedule: Q01DX Z (ip), vehicle: carboxymethylcellulose (CMC) 94 % of control

Cc1ccc(CN(CCO)Cc2ccccc2)cc1
inactive: dose: 3.12 mg/kg/injection, schedule: Q01DX009 (ip), vehicle: water 86 % of control | dose: 6.25 mg/kg/injection, schedule: Q01DX009 (ip), vehicle: water 89 % of control | dose: 12.5 mg/kg/injection, schedule: Q01DX009 (ip), vehicle: water 93 % of control and 100 % of control | dose: 50.0 mg/kg/injection, schedule: Q01DX009 (ip), vehicle: water 93 % of control

c1ccc(C(NC2CC3CCC2C3)c2ccccc2)cc1 (stereo unspecified)
inactive: dose: 50.0 mg/kg/injection, schedule: Q01DX009 (ip), vehicle: saline sonified 101 % of control | [18] 109 % of control | [21] 95 % of control | [19] 95 % of control | [22] 100 % of control

c1ccc2c(c1)Cc1cc(NC3=NCCO3)ccc1-2
inactive: dose: 50.0 mg/kg/injection, schedule: Q04DX002 (ip), vehicle: saline with Tween-80 93 % of control | dose: 100.0 mg/kg/injection, schedule: Q04DX002 (ip), vehicle: saline with Tween-80 100 % of control | [4] 101 % of control | dose: 200.0 mg/kg/injection, schedule: Q04DX002 (ip), vehicle: saline with Tween-80 104 % of control | [5] 89 % of control | dose: 400.0 mg/kg/injection, schedule: Q04DX002 (ip), vehicle: saline with Tween-80 93 % of control | [6] 87 % of control

C=CS(=O)CCCCCCCC (stereo unspecified)
inactive: [7] 102 % of control | [8] 102 % of control

CC(=O)Nc1ccc(S(=O)(=O)NO)cc1
inactive: dose: 50.0 mg/kg/injection, schedule: Q01DX009 (ip), vehicle: saline 96 % of control | dose: 100.0 mg/kg/injection, schedule: Q01DX009 (ip), vehicle: saline 100 % of control | [15] 100 % of control | dose: 200.0 mg/kg/injection, schedule: Q01DX009 (ip), vehicle: saline 94 % of control | [16] 103 % of control | [17] 101 % of control

CC(C)(C)OC(=O)C(C=O)N1C(=O)c2ccccc2C1=O (stereo unspecified)
inactive: [18] 94 % of control | [21] 100 % of control | [19] 92 % of control | [22] 94 % of control | [20] 100 % of control | dose: 400.0 mg/kg/injection, schedule: Q01DX009 (ip), vehicle: saline sonified 98 % of control

Nc1ncnc(N)c1NC(=O)c1cccc([N+](=O)[O-])c1
inactive: [11] 98 % of control | [13] 103 % of control | [14] 93 % of control
